{"source": "patent US8883170B2", "about": "(priority 2008, dated 2014)", "key": {"[1]": {"tested_on": "recombinant hemagglutinin antigen (rHA) of influenza A", "format": "in vivo", "conditions": "compound 100 μg + rHA 5 μg; for Anti-rHA Titer IgG1 / Anti-rHA Titer IgG2a / Anti-rHA Titer IgG2b: s.c. Days 1 and 22, serum Day 43; for Anti-rHA Titer Total IgG: s.c. Days 1 and 22, serum Day 43, BALB/c mice"}, "spleen cells": {"tested_on": "spleen cells", "experiment": "Immunogenicity study with rHA: lymphoproliferation of restimulated spleen cells (3H-TdR incorporation)", "format": "in vivo, BALB/c mice", "conditions": "mice immunized with compound 100 μg + rHA 5 μg; for Lymphoproliferation Con A: restimulated with concanavalin A 4 days; for Lymphoproliferation Medium: restimulated with medium (background) 4 days; for Lymphoproliferation rHA: restimulated with rHA 4 days"}, "BALB/c mice": {"tested_on": "BALB/c mice", "conditions": "for overall toxicity conclusion: acute toxicity study in mice; for 7-Day Survival Males: male mice; for observations in treated animals: mice"}, "humans": {"tested_on": "humans", "conditions": "in humans; cited from earlier work"}, "[2]": {"conditions": "single s.c. dose 250 μg, female mice"}, "[3]": {"conditions": "single s.c. dose 500 μg, female mice"}, "[4]": {"conditions": "single s.c. dose 1 mg, female mice"}, "[5]": {"conditions": "single s.c. dose 2 mg, female mice"}, "[6]": {"conditions": "single s.c. dose 4 mg in DMSO, female mice"}}, "note": "Like-named read-outs stand apart in the source and are kept apart here.", "data": [{"compound": "CCCCCCCCCCCCNC(=O)C12CCC(C)(C)CC1C1=CCC3C4(C)CCC(O)C(C)(C=O)C4CCC3(C)C1(C)CC2", "note": "(stereo not shown) [Dodecyl genin, dodecylamide derivative of gypsogenin]", "values": [{"measurement": "Anti-rHA Titer IgG1", "setting": "[1]", "result": "20,984"}, {"measurement": "Anti-rHA Titer IgG2a", "setting": "[1]", "result": 6600}, {"measurement": "Anti-rHA Titer IgG2b", "setting": "[1]", "result": 1466}, {"measurement": "Anti-rHA Titer Total IgG", "setting": "[1]", "result": 3418}, {"measurement": "Lymphoproliferation Con A", "setting": "spleen cells", "result": "278,393"}, {"measurement": "Lymphoproliferation Medium", "setting": "spleen cells", "result": 772}, {"measurement": "Lymphoproliferation rHA", "setting": "spleen cells", "result": "30,402"}, {"measurement": "overall toxicity conclusion", "setting": "BALB/c mice", "result": "general lack of toxicity"}, {"measurement": "7-Day Survival Females", "setting": "BALB/c mice; [2]", "result": 100, "unit": "%"}, {"measurement": "7-Day Survival Males", "setting": "BALB/c mice; single s.c. dose 250 μg", "result": 100, "unit": "%"}, {"measurement": "7-Day Survival Females", "setting": "BALB/c mice; [3]", "result": 100, "unit": "%"}, {"measurement": "7-Day Survival Males", "setting": "BALB/c mice; single s.c. dose 500 μg", "result": 100, "unit": "%"}, {"measurement": "7-Day Survival Females", "setting": "BALB/c mice; [4]", "result": 100, "unit": "%"}, {"measurement": "7-Day Survival Males", "setting": "BALB/c mice; single s.c. dose 1 mg", "result": 100, "unit": "%"}, {"measurement": "7-Day Survival Females", "setting": "BALB/c mice; [5]", "result": 100, "unit": "%"}, {"measurement": "7-Day Survival Males", "setting": "BALB/c mice; single s.c. dose 2 mg", "result": 100, "unit": "%"}, {"measurement": "7-Day Survival Females", "setting": "BALB/c mice; [6]", "result": 100, "unit": "%"}, {"measurement": "7-Day Survival Males", "setting": "BALB/c mice; single s.c. dose 4 mg in DMSO", "result": 100, "unit": "%"}, {"measurement": "observations in treated animals", "setting": "BALB/c mice; single s.c. injection", "result": "lethargy, hair loss, and skin irritation at the injection site"}]}, {"compound": "CC1(C)CC[C@]2(C(=O)O)CC[C@]3(C)C(=CC[C@@H]4[C@@]5(C)CC[C@H](O)[C@@](C)(C=O)[C@@H]5CC[C@]43C)[C@@H]2C1", "note": "[Gypsogenin, gypsogenin, reference compound]", "values": [{"measurement": "Anti-rHA Titer IgG1", "setting": "[1]", "result": 3220}, {"measurement": "Anti-rHA Titer IgG2a", "setting": "[1]", "result": 348}, {"measurement": "Anti-rHA Titer IgG2b", "setting": "[1]", "result": 1118}, {"measurement": "Anti-rHA Titer Total IgG", "setting": "[1]", "result": 1136}, {"measurement": "Lymphoproliferation Con A", "setting": "spleen cells", "result": "321,750"}, {"measurement": "Lymphoproliferation Medium", "setting": "spleen cells", "result": 356}, {"measurement": "Lymphoproliferation rHA", "setting": "spleen cells", "result": 8507}, {"measurement": "overall toxicity conclusion", "setting": "BALB/c mice", "result": "general lack of toxicity"}, {"measurement": "7-Day Survival Females", "setting": "BALB/c mice; [2]", "result": 100, "unit": "%"}, {"measurement": "7-Day Survival Males", "setting": "BALB/c mice; single s.c. dose 250 μg", "result": 100, "unit": "%"}, {"measurement": "7-Day Survival Females", "setting": "BALB/c mice; [3]", "result": 100, "unit": "%"}, {"measurement": "7-Day Survival Males", "setting": "BALB/c mice; single s.c. dose 500 μg", "result": 100, "unit": "%"}, {"measurement": "7-Day Survival Females", "setting": "BALB/c mice; [4]", "result": 100, "unit": "%"}, {"measurement": "7-Day Survival Males", "setting": "BALB/c mice; single s.c. dose 1 mg", "result": 100, "unit": "%"}, {"measurement": "7-Day Survival Females", "setting": "BALB/c mice; [5]", "result": 100, "unit": "%"}, {"measurement": "7-Day Survival Males", "setting": "BALB/c mice; single s.c. dose 2 mg", "result": 100, "unit": "%"}, {"measurement": "7-Day Survival Females", "setting": "BALB/c mice; [6]", "result": 100, "unit": "%"}, {"measurement": "7-Day Survival Males", "setting": "BALB/c mice; single s.c. dose 4 mg in DMSO", "result": 100, "unit": "%"}, {"measurement": "observations in treated animals", "setting": "BALB/c mice; single s.c. injection", "result": "lethargy, hair loss, and skin irritation at the injection site"}, {"measurement": "stability on storage (TLC, purity checked periodically)", "setting": "kept in cold (below −4° C.), 1 year", "result": "no change was observed"}, {"measurement": "stability on storage (TLC)", "setting": "room temperature storage", "result": "decomposition was seen"}]}, {"compound": "CCCCCCCCCCCCNC(=O)[C@]12CCC(C)(C)C[C@H]1C1=CCC3[C@@]4(C)CC[C@H](OC5OC(CO)C(O)C(O)C5O)[C@@](C)(C=O)C4CC[C@@]3(C)[C@]1(C)CC2", "note": "(stereo partly shown) [Saponin 1]", "values": [{"measurement": "Anti-rHA Titer IgG1", "setting": "[1]", "result": "29,100"}, {"measurement": "Anti-rHA Titer IgG2a", "setting": "[1]", "result": 446}, {"measurement": "Anti-rHA Titer IgG2b", "setting": "[1]", "result": 2008}, {"measurement": "Anti-rHA Titer Total IgG", "setting": "[1]", "result": 5130}, {"measurement": "Lymphoproliferation Con A", "setting": "spleen cells", "result": "232,769"}, {"measurement": "Lymphoproliferation Medium", "setting": "spleen cells", "result": 268}, {"measurement": "Lymphoproliferation rHA", "setting": "spleen cells", "result": 3696}, {"measurement": "overall toxicity conclusion", "setting": "BALB/c mice", "result": "general lack of toxicity"}, {"measurement": "7-Day Survival Females", "setting": "BALB/c mice; [2]", "result": 100, "unit": "%"}, {"measurement": "7-Day Survival Males", "setting": "BALB/c mice; single s.c. dose 250 μg", "result": 100, "unit": "%"}, {"measurement": "7-Day Survival Females", "setting": "BALB/c mice; [3]", "result": 100, "unit": "%"}, {"measurement": "7-Day Survival Males", "setting": "BALB/c mice; single s.c. dose 500 μg", "result": 100, "unit": "%"}, {"measurement": "7-Day Survival Females", "setting": "BALB/c mice; [4]", "result": 100, "unit": "%"}, {"measurement": "7-Day Survival Males", "setting": "BALB/c mice; single s.c. dose 1 mg", "result": 100, "unit": "%"}, {"measurement": "7-Day Survival Females", "setting": "BALB/c mice; [5]", "result": 80, "unit": "%"}, {"measurement": "7-Day Survival Males", "setting": "BALB/c mice; single s.c. dose 2 mg", "result": 100, "unit": "%"}, {"measurement": "7-Day Survival Females", "setting": "BALB/c mice; [6]", "result": 80, "unit": "%"}, {"measurement": "7-Day Survival Males", "setting": "BALB/c mice; single s.c. dose 4 mg in DMSO", "result": 100, "unit": "%"}, {"measurement": "maximum tolerated dose (MTD) for females", "setting": "BALB/c mice; single s.c. injection, female mice", "result": 1, "unit": "mg"}, {"measurement": "observations in treated animals", "setting": "BALB/c mice; single s.c. injection", "result": "lethargy, hair loss, and skin irritation at the injection site"}]}, {"compound": "QS-21", "values": [{"measurement": "dose associated with significant local reactions", "setting": "humans", "result": "≥ 200", "unit": "µg"}]}]}
